Holding throughout (type): cell-based, Mycobacterium smegmatis
For data set [1], the system named is M. smegmatis mc^2 155. Description: PAC-MAN competition with azide-modified test molecules. Conditions: concentration dependent analysis, 2 h, then Fl-az; read-out: EC50 of apparent permeation. The method, then: Competition with test molecules. To a 96-well plate added 100 uL DBCO-modified M. smegmatis mc^2 155 cells pre well with 50 μM test molecules, in triplicate respectively. The plate was incubated in 37° C. for 2 h. The cells were spun down for 2 min at 3000 g. The supernatant was decanted, and 50 μM FAM-N3 was then added to each well, followed by incubation in 37° C. for 1 h. The cells were then spun down again, and the pellets were washed with PBST for 2 times and fixed with 4% formaldehyde for 15 mins. The samples were then analyzed by Attune™ NxT Acoustic Focusing Cytometer.
LLysN3 competition. To a 96-well plate added 100 uL DBCO-modified M. smegmatis mc^2 155 cells pre well with different concentration of L-Lys-N3 described in the main text, in triplicate respectively. The plate was incubated in 37° C. for 2 h. The cells were spun down for 2 min at 3000 g. […] The samples were then analyzed by Attune® NxT Acoustic Focusing Cytometer.
Next, we set out to benchmark the ability of the assay to report on the permeability of a set of test small molecules by performing a pilot screen with azide-conjugated compounds. […] Next, cells are treated with Fl-az to quantify the level of unreacted DBCO epitopes.^42 Finally, cells are analyzed by flow cytometry to measure total cellular fluorescence.

Data set [2] relates to Msm ldtΔ5 (PM2750 Δ5). Kind of data set: TetD labeling of Ldt knock out strain. The following applies: 25 μM TetD, 50 μM Fl-Az. The method, then:
Ldt knock down strain. M. smegmatis mc^2 155 and PM2750 Δ5 were inoculated from the glycerol stock to the according media and grown for 24 hours until 0.5-0.6 OD, 25 μM DBCOtetra were added to the media, and the cells were grown overnight to achieve stationary phase. The cells were harvested and spinned down for 2 min at 3000 g, washed with PBST two times and resuspended in PBST. To a 96-well plate added 100 uL cells pre well with 50 μM FAM-N3 accordingly in triplicate. The plate was incubated in 37° C. for 1 h and spun down for 2 min at 3000 g. The supernatant was decanted, and the pellets were washed with PBST for 2 times and fixed with 4% formaldehyde for 15 mins. The samples were then analyzed by Attune™ NxT Acoustic Focusing Cytometer.

Data set [3] has as its system M. smegmatis mc^2 155. Kind of data set: Example IV: metabolic PG labeling of Msm with DBCO tags followed by azide fluorophore, flow cytometry. The method, then: General method for bacterial peptidoglycan modification. M. smegmatis strains was inoculated from the glycerol stock to the according media and grown for 24 hours until 0.5-0.6 OD, tetrapeptide probes were added to the media and the cells were grown overnight to achieve stationary phase. The cells were harvested the next day and spun down for 2 min at 3000 g, washed with phosphate buffered saline with tween80 (PBST, PBS with 0.05% tween 80) two times and resuspended in PBST to yield DBCO-modified M. smegmatis cells for further labeling and other experiments.
(§1) DBCOtetra compared with stereo control and single amino acid DBCO. M. smegmatis mc^2 155 was inoculated from stationary phase in 1:100 dilution to a fresh 7H9 media with ADC. 25 μM Dap-DBCO, DBCOtetra or DBCOtera(L) were added to the culture tubes respectively, and the cells were grown for 36-40 hours until stationary phase. The cells were harvested and spun down for 2 min at 3000 g, washed with PBST two times and resuspended in PBST. To a 96-well plate added 100 μL cells pre well with 50 μM FAM-N3 in triplicate. The plate was incubated in 37° C. for 1 h and spun down for 2 min at 3000 g. The supernatant was decanted, and the pellets were washed with PBST for 2 times and fixed with 4% formaldehyde for 15 mins. The samples were then analyzed by Attune™ NxT Acoustic Focusing Cytometer.
as §1, with “Confirm for click chemistry on PG.” for “DBCOtetra compared with stereo control and single amino acid DBCO.”, “μM” for “μM Dap-DBCO,”, “FL-tetra” for “DBCOtera(L)”, “uL” for “μL”, “FAM-N3 or 5-carboxy fluorescein accordingly” for “FAM-N3”
as §1, with “Different concentrations of DBCOtetra.” for “DBCOtetra compared with stereo control and single amino acid DBCO.”, “ADC. 5 μM, 10 μM or” for “ADC.”, “μM” for “μM Dap-DBCO,”, “DBCOtetra” for “DBCOtetra or DBCOtera(L)”, “1h” for “1 h”
Different concentration of FAM-N3 and different time. M. smegmatis mc^2 155 was inoculated from stationary phase in 1:100 dilution to a fresh 7H9 media with ADC. 25 μM DBCOtetra were added to the culture tubes, and the cells were grown for 36-40 hours until stationary phase. The cells were harvested and spun down for 2 min at 3000 g, washed with PBST two times and resuspended in PBST. To a 96-well plate added 100 μL cells pre well with different concentration of FAM-N3 described in the main text, 9 wells each. […] The samples were then analyzed by Attune™ NxT Acoustic Focusing Cytometer. […]

The test system of data set [4] is M. smegmatis cells. Description: Ethidium bromide and Nile red whole-cell accumulation assay. Conditions: cells treated with vehicle or TetD (25 or 50 μM); both dyes. The method, then:
Ethidium bromide and Nile red whole-cell accumulation assay. To a Costar 96-well half area black opaque flat bottom plate added 100 uL DBCO-modified M. smegmatis cells each well with 5 μM ethidium bromide and 10 μM Nile red in triplicates, respectively. The fluorescent intensity at different time points were taken by a Synergy H1 microplate reader for 90 min with 3 min intervals and continuously orbital shaking. Wavelengths ethidium bromide, excitation 530 nm, emission 590 nm; Nile red, excitation 540 nm, emission 630 nm.

The EC50 is the midpoint of the concentration-response curve. As to `[N-]=[N+]=NCCCC[C@H](N)C(=O)O` [Lys], the EC50 in data set [1] was 100 µM.
For the molecule `C[C@H](NC(=O)CCC(=O)N1Cc2ccccc2C#Cc2ccccc21)C(=O)N[C@H](CCC(=O)N[C@@H](CCCCN)C(=O)N[C@H](C)C(=O)O)C(N)=O` [TetD], the “decrease of fluorescence levels relative to the parental cells” value in data set [2] was about 7 fold. Also, the “PG labeling levels (fluorescence) above vehicle treated cells” value in data set [3] (Msm, metabolic label then Fl-az) is listed as about 85 fold. The “fluorescence levels of Msm” value in data set [3] (metabolic label and/or fluorophore as named) is “concentration-dependent increase in cellular fluorescence”. For the same molecule, the “accumulation of the permeability probe (EtBr or Nile Red)” value in data set [4] is listed as “no significant change in the accumulation of the permeability probe”.

These data come from US20240401101A1, “A LIVE CELL ASSAY TO DETERMINE PERMEABILITY OF TEST MOLECULES TO AND/OR WITHIN THE PEPTIDOGLYCAN SCAFFOLD OF BACTERIA CELLS” (priority 2021, published 2024).
